What follows are compounds tested on IL-4 induced STAT6 phosphorylation in THP-1 human monocytic cells (assay: Cellular JAK potency assay, THP-1). Details: Homo sapiens, THP-1, read-out: THP-1 IL4 pIC50 (converted).
In the case of `Cc1cc(Nc2cc3ncccc3c(N[C@@H]3C[C@H]4CC[C@@H](C3)N4Cc3ccc(O)cc3)n2)n[nH]1` [Example 1-18], the IC50 is reported as > 200 nM.
Work on `Cc1cc(Nc2cc3ncccc3c(N[C@@H]3C[C@H]4CC[C@@H](C3)N4Cc3cccc(O)c3)n2)n[nH]1` [Example 1-19] yielded an IC50 of 31.6 to 200 nM.
`COC(=O)c1cnc2cc(Nc3cc(C)[nH]n3)nc(N[C@@H]3C[C@H]4CC[C@@H](C3)N4C3CCCOC3=O)c2c1` (stereo partly drawn) [Example 16, Methyl 7-((5-methyl-1H-pyrazol-3-yl)amino)-5-(((1R,3s,5S)-8-(2-oxotetrahydro-2H-pyran-3-yl)-8-azabicyclo[3.2.1]octan-3-yl)amino)-1,6-naphthyridine-3-carboxylate] showed an IC50 of 31.6 to 200 nM.
With `Cc1cc(Nc2cc3ncccc3c(N[C@@H]3C[C@H]4CC[C@@H](C3)N4CC3COC(=O)O3)n2)n[nH]1` (stereo partly shown) [Example 1-30] the IC50 was 31.6 to 200 nM.
With `Cc1cc(Nc2cc3nc(CN4CCN(C)CC4)ccc3c(N[C@@H]3C[C@H]4CC[C@@H](C3)N4CC(F)(F)F)n2)n[nH]1` [Example 5-35] the IC50 was < 31.6 nM.
`Cc1cc(Nc2cc3nc(CN4CCOCC4)ccc3c(N[C@@H]3C[C@H]4CC[C@@H](C3)N4S(C)(=O)=O)n2)n[nH]1` [Example 5-15] showed an IC50 of 31.6 to 200 nM.
Compound `Cc1cc(Nc2cc3ncccc3c(N[C@@H]3C[C@H]4CC[C@@H](C3)N4S(=O)(=O)c3ccccn3)n2)n[nH]1` [Example 4-14] has an IC50 of 31.6 to 200 nM.
In the case of `Cc1cc(Nc2cc3nc(CN4CCC(F)(F)CC4)ccc3c(N[C@@H]3C[C@H]4CC[C@@H](C3)N4CC(F)(F)F)n2)n[nH]1` [Example 5-33], the IC50 is reported as 31.6 to 200 nM.
`CCC1(S(=O)(=O)N2[C@@H]3CC[C@H]2C[C@H](Nc2nc(Nc4cc(C)[nH]n4)cc4nc(CN5CCC(F)(F)CC5)ccc24)C3)CC1` [Example 5-32] was tested, and the IC50 was 31.6 to 200 nM.
In the case of `COC(=O)C1(C(=O)N2[C@@H]3CC[C@H]2C[C@H](Nc2nc(Nc4cc(C)[nH]n4)cc4ncccc24)C3)CC1` [Example 2-9], the IC50 is reported as > 200 nM.

Same assay, conditions: IL-4 induced STAT6 phosphorylation, THP-1 cells
For `Cc1cc(Nc2cc3nc(CN4CCOCC4)ccc3c(N[C@@H]3C[C@H]4CCC[C@@H](C3)N4S(=O)(=O)N3CCC3)n2)n[nH]1` [Example 5-28], the “THP-1 IL4 pIC50” value was “B (B represents a pEC50 value between 6.7 and 7.5 (EC50 between 200 nM and 32 nM))”.
For `Cc1cc(Nc2cc3ncccc3c(N[C@@H]3C[C@H]4CC[C@@H](C3)N4CC3CCC(=O)O3)n2)n[nH]1` (stereo partly shown) [Example 1-29], the “THP-1 IL4 pIC50” value was “C (C represents a pEC50 value<6.7 (EC50>200 nM))”.
In the case of `COC(=O)CCN1[C@@H]2CC[C@H]1C[C@H](Nc1nc(Nc3cc(C)[nH]n3)cc3ncccc13)C2` [Example 1-2], the “THP-1 IL4 pIC50” value is reported as “C (C represents a pEC50 value<6.7 (EC50>200 nM))”.
With `Cc1cc(Nc2cc3ncccc3c(N[C@@H]3C[C@H]4CCC[C@@H](C3)N4S(C)(=O)=O)n2)n[nH]1` [Example 4-16] the “THP-1 IL4 pIC50” value was “A (A represents a pEC50 value≥7.5 (EC50≤32 nM))”.
With `COC(=O)CCCN1[C@@H]2CC[C@H]1C[C@H](Nc1nc(Nc3cc(C)[nH]n3)cc3ncccc13)C2` [Example 1-3] the “THP-1 IL4 pIC50” value was “C (C represents a pEC50 value<6.7 (EC50>200 nM))”.
In the case of `Cc1cc(Nc2cc3ncccc3c(N[C@@H]3C[C@H]4CC[C@@H](C3)N4CC(=O)N[C@H]3CCOC3=O)n2)n[nH]1` [Example 1-12], the “THP-1 IL4 pIC50” value is reported as “C (C represents a pEC50 value<6.7 (EC50>200 nM))”.
In the case of `Cc1cc(Nc2cc3ncccc3c(N[C@@H]3C[C@H]4CC[C@@H](C3)N4CC(=O)N[C@@H]3CCOC3=O)n2)n[nH]1` [Example 1-11], the “THP-1 IL4 pIC50” value is reported as “C (C represents a pEC50 value<6.7 (EC50>200 nM))”.
With `COC(=O)CN1[C@@H]2CC[C@H]1C[C@H](Nc1nc(Nc3cc(C)[nH]n3)cc3ncccc13)C2` [Example 1-1] the “THP-1 IL4 pIC50” value was “C (C represents a pEC50 value<6.7 (EC50>200 nM))”.
For `C=CCS(=O)(=O)N1[C@@H]2CCC[C@H]1C[C@H](Nc1nc(Nc3cc(C)[nH]n3)cc3ncccc13)C2` [Example 4-22], the “THP-1 IL4 pIC50” value was “A (A represents a pEC50 value≥7.5 (EC50≤32 nM))”.
`Cc1cc(Nc2cc3ncccc3c(N[C@@H]3C[C@H]4CCC[C@@H](C3)N4Cc3cccc(O)c3)n2)n[nH]1` [Example 1-49] was tested, and the “THP-1 IL4 pIC50” value was “A (A represents a pEC50 value≥7.5 (EC50≤32 nM))”.
`C=CCOC(=O)N1[C@@H]2CCC[C@H]1C[C@H](Nc1nc(Nc3cc(C)[nH]n3)cc3nc(CN4CCOCC4)ccc13)C2` [Example 5-25] was tested, and the “THP-1 IL4 pIC50” value was “B (B represents a pEC50 value between 6.7 and 7.5 (EC50 between 200 nM and 32 nM))”.
With `Cc1cc(Nc2cc3ncccc3c(N[C@@H]3C[C@H]4CCC[C@@H](C3)N4[C@@H]3CCOC3=O)n2)n[nH]1` [Example 1-52] the “THP-1 IL4 pIC50” value was “B (B represents a pEC50 value between 6.7 and 7.5 (EC50 between 200 nM and 32 nM))”.
In the case of `CCOCC(=O)N1[C@@H]2CC[C@H]1C[C@H](Nc1nc(Nc3cc(C)[nH]n3)cc3ncccc13)C2` [Example 2-4], the “THP-1 IL4 pIC50” value is reported as “C (C represents a pEC50 value<6.7 (EC50>200 nM))”.
`COCCS(=O)(=O)N1[C@@H]2CCC[C@H]1C[C@H](Nc1nc(Nc3cc(C)[nH]n3)cc3nc(CN4CCOCC4)ccc13)C2` [Example 5-24] was tested, and the “THP-1 IL4 pIC50” value was “B (B represents a pEC50 value between 6.7 and 7.5 (EC50 between 200 nM and 32 nM))”.
`Cc1cc(Nc2cc3ncccc3c(N[C@@H]3C[C@H]4CCC[C@@H](C3)N4[C@H]3CCOC3=O)n2)n[nH]1` [Example 1-51] was tested, and the “THP-1 IL4 pIC50” value was “B (B represents a pEC50 value between 6.7 and 7.5 (EC50 between 200 nM and 32 nM))”.
`Cc1cc(Nc2cc3ncccc3c(N[C@@H]3C[C@H]4CCC[C@@H](C3)N4CC(=O)OC(C)C)n2)n[nH]1` [Example 1-35] was tested, and the “THP-1 IL4 pIC50” value was “A (A represents a pEC50 value≥7.5 (EC50≤32 nM))”.
With `Cc1cc(Nc2cc3ncccc3c(N[C@@H]3C[C@H]4CCC[C@@H](C3)N4CC(F)(F)F)n2)n[nH]1` [Example 1-45] the “THP-1 IL4 pIC50” value was “B (B represents a pEC50 value between 6.7 and 7.5 (EC50 between 200 nM and 32 nM))”.

Same assay, conditions: THP-1 cells, IL-4 induced STAT6 phosphorylation
For `COc1ccnc2cc(Nc3cc(C)[nH]n3)nc(N[C@@H]3C[C@H]4CC[C@@H](C3)N4C(=O)OCC(C)C)c12` [Example 7-1], the “THP-1 IL4 pIC50” value was “B (B represents a pEC50 value between 6.7 and 7.5 (EC50 between 200 nM and 32 nM))”.
`Cc1cc(Nc2cc3ncc(S(C)(=O)=O)cc3c(N[C@@H]3C[C@H]4CC[C@@H](C3)N4CCCF)n2)n[nH]1` [Example 6-55] was tested, and the “THP-1 IL4 pIC50” value was “C (C represents a pEC50 value<6.7 (EC50>200 nM))”.
For `COc1ccnc2cc(Nc3cc(C)[nH]n3)nc(N[C@@H]3C[C@H]4CC[C@@H](C3)N4C(=O)CN(C)C)c12` [Example 7-3], the “THP-1 IL4 pIC50” value was “C (C represents a pEC50 value<6.7 (EC50>200 nM))”.
In the case of `COc1ccnc2cc(Nc3cc(C)[nH]n3)nc(N[C@@H]3C[C@H]4CC[C@@H](C3)N4CCF)c12` [Example 7-7], the “THP-1 IL4 pIC50” value is reported as “B (B represents a pEC50 value between 6.7 and 7.5 (EC50 between 200 nM and 32 nM))”.
`Cc1cc(Nc2cc3ncc(S(C)(=O)=O)cc3c(N[C@@H]3C[C@H]4CC[C@@H](C3)N4[C@@H]3CCOC3=O)n2)n[nH]1` [Example 6-57] was tested, and the “THP-1 IL4 pIC50” value was “C (C represents a pEC50 value<6.7 (EC50>200 nM))”.
With `Cc1cc(Nc2cc3ncc(S(C)(=O)=O)cc3c(N[C@@H]3C[C@H]4CC[C@@H](C3)N4[C@H]3CCOC3=O)n2)n[nH]1` [Example 6-58] the “THP-1 IL4 pIC50” value was “C (C represents a pEC50 value<6.7 (EC50>200 nM))”.
With `COC(=O)c1cnc2cc(Nc3cc(C)[nH]n3)nc(N[C@@H]3C[C@H]4CC[C@@H](C3)N4CCCF)c2c1` [Example 6-44] the “THP-1 IL4 pIC50” value was “B (B represents a pEC50 value between 6.7 and 7.5 (EC50 between 200 nM and 32 nM))”.

These compounds were tested against JAK1 (Homo sapiens (Human), UniProt P23458) (assay: LanthaScreen JAK biochemical assay (JAK1)). Details: not given.
Sequence of JAK1 (P23458 whole entry): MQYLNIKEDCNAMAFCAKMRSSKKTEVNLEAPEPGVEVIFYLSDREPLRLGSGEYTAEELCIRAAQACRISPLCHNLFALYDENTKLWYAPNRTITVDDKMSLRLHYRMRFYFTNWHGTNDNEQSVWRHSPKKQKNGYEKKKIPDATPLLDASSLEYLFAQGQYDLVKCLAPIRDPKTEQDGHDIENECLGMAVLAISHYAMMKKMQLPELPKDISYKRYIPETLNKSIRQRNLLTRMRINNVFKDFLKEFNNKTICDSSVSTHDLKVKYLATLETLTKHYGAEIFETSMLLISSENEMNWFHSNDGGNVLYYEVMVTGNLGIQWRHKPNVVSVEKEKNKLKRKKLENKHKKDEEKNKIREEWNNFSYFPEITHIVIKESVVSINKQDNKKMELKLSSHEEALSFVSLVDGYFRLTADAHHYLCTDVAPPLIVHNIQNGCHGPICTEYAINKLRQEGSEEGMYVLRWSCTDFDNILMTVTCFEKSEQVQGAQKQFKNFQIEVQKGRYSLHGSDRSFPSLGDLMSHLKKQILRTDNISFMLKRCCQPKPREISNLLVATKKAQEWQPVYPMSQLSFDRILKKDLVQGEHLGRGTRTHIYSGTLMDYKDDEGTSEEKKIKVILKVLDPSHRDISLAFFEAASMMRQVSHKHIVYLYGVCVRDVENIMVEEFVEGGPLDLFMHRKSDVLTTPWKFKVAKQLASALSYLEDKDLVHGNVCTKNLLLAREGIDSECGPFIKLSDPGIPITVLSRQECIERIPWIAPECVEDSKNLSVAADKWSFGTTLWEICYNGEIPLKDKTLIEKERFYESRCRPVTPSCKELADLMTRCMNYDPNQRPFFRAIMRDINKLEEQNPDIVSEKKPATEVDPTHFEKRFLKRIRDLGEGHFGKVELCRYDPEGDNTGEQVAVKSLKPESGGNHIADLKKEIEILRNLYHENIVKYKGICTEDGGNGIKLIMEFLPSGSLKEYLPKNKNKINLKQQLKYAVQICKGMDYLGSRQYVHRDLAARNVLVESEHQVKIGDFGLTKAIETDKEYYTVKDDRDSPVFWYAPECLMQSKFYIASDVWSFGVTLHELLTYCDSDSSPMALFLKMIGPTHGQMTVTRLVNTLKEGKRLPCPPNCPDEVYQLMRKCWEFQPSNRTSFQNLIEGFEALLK
With `COc1ccnc2cc(Nc3cc(C)[nH]n3)nc(N[C@@H]3C[C@H]4CC[C@@H](C3)N4C(=O)OCC(C)C)c12` [Example 7-1] the “JAK 1 (pKi)” value was “B (B represents a pKi value between 9 and 10 (Ki between 1 nM and 0.1 nM))”.

Same assay, conditions: read-out: JAK 1 (pKi) (converted)
`Cc1cc(Nc2cc3ncccc3c(N[C@@H]3C[C@H]4CC[C@@H](C3)N4Cc3ccc(O)cc3)n2)n[nH]1` [Example 1-18] gave a Ki of 0.1 to 1 nM.
Compound `COC(=O)c1cnc2cc(Nc3cc(C)[nH]n3)nc(N[C@@H]3C[C@H]4CC[C@@H](C3)N4C3CCCOC3=O)c2c1` (stereo partly drawn) [Example 16, Methyl 7-((5-methyl-1H-pyrazol-3-yl)amino)-5-(((1R,3s,5S)-8-(2-oxotetrahydro-2H-pyran-3-yl)-8-azabicyclo[3.2.1]octan-3-yl)amino)-1,6-naphthyridine-3-carboxylate] has a Ki of 0.1 to 1 nM.

— patent US10072026B2, “Crystalline form of 3-((1R,3s,5S)-3-((7-((5-methyl-1H-pyrazol-3-yl)amino)-1,6-naphthyridin-5-yl)amino)-8-azabicyclo[3.2.1]octan-8-yl)propanenitrile” (priority 2015, dated 2018)
